This is an account of results in US8609870B2, “Treating various disorders using TrkB agonists” (Emory University, priority 2008, dated 2013).

In experiment [1] the target is TrkB extra-cellular domain (ECD) (Homo sapiens, UniProt Q16620). Description: [3H]-deoxygedunin ligand binding assay, TrkB ECD (Scatchard plot). Particulars: increasing concentrations of radioligand. The method, then: (§1) Purified TrkB ECD or ICD proteins (10 μg/each) were incubated with different [^3H-deoxygedunin] in 1 ml binding buffer (0.05 M Na/K phosphate buffer (pH 7.1), 200 mM NaCl) (1 nM [^3H]deoxygedunin˜82300 cpm) at 4° C. for 10 minutes. After incubation, the reaction mixture was loaded on filter paper and washed with 3×5 ml Tris buffer (100 mM Tris, pH 7.1). The dried filter paper was put into a small vial and subjected to liquid scintillation counter analysis. The value of the dissociation constant and the number of sites were obtained from Scatchard plots by using the equation r/[L]free=n/Kd−r/Kd, where r is the ratio of the concentration of bound ligand to the total protein concentration and n is the number of binding sites.
To determine whether an identified active compound physically and directly binds to the TrkB receptor, in vitro binding assays can be conducted with purified TrkB extracellular domain (ECD) and intracellular domain (ICD) recombinant proteins. Purified TrkB ECD and ICD (10 μg of each) are incubated with different concentrations of ^3H-labeled identified active compound in 1 ml of binding buffer (0.05M Na/K phosphate buffer, pH 7.1, 200 mM NaCl) at 4° C. for 10 minutes. After the incubation, the reaction mixture is loaded on filter paper. The mixture is washed three times with Tris buffer (100 mM Tris, pH 7.1), and the dried filter paper is put into a small vial and subjected to liquid scintillation counter analysis. […] The value of the dissociate constant and the number of sites will then be obtained from Scatchard plots using the equation r/[L]free=n/Kd−r/Kd, where r is the ratio of the concentration of bound ligand to the total protein concentration and n is the number of binding sites.
To determine whether deoxygedunin binds the intra-cellular domain (ICD) or extra-cellular domain (ECD) of the TrkB receptor, ligand binding assays with [^3H]-deoxygedunin were performed. […] The coprecipitated HA-TrkB was also prominently tyrosine phosphorylated (see FIG. 14, 3rd panel).

Experiment [2] concerns the target TrkB intra-cellular domain (ICD) (Homo sapiens, UniProt Q16620). Description: [3H]-deoxygedunin ligand binding assay, TrkB ICD. Particulars: increasing concentrations of radioligand. As to the method: as §1
To determine whether an identified active compound physically and directly binds to the TrkB receptor, in vitro binding assays can be conducted with purified TrkB extracellular domain (ECD) and intracellular domain (ICD) recombinant proteins. Purified TrkB ECD and ICD (10 μg of each) are incubated with different concentrations of ^3H-labeled identified active compound in 1 ml of binding buffer (0.05M Na/K phosphate buffer, pH 7.1, 200 mM NaCl) at 4° C. for 10 minutes. After the incubation, the reaction mixture is loaded on filter paper. […]

The target in experiment [3] is TrkA (Homo sapiens, UniProt P04629). In words: [3H]-deoxygedunin ligand binding assay, TrkA.
Experiment [4] relates to hippocampal neurons. In words: Glutamate-triggered apoptosis in hippocampal neurons (MR(DEVD)2 / condensed nuclei). Particulars: 0.5 μM preincubated 30 min, then 50 μM glutamate 16 h. In kind it is cell-based. The method, then: To create and test reporter cell lines. In order to identify small molecules that mimic BDNF and activate TrkB, TrkB stably transfected murine cell lines are created. The T48 and T62 cell lines are created by transfecting basal forebrain SN56 cells, which express negligible TrkB, with a TrkB expression construct. To test expression of TrkB, the cells are treated with BDNF, which is predicted to result in strong phosphorylation of Trk-490 and Akt activation in comparison to the TrkA NTR stably expressing T17 cell line indicating expression of TrkB. To test resistance to apoptosis, the SN56 cells and the T48 cell line are either untreated or treated with BDNF, and then are subjected to an apoptotic assay. The apoptotic assay involves treating the cells with 0.75 μM Staurosporine for 9 hours, and 1 hour before completing the experiment, the cells are treated with 10 μM MR (DEVD)2. The cells then are fixed with 4% paraformaldehyde for 15 minutes, washed with phosphate buffered saline (PBS), and incubated with Hoechst 33342 for 10 minutes. Cover slides are washed with PBS, mounted, and then the cells are examined using a fluorescent microscope to see which cells turn red upon caspase cleavage.
To compare the apoptosis inhibitory activity of identified active compounds, the compounds are preincubated with SN56 and T48 cells, and subsequently are subjected to the fluorescent apoptotic assay as described above. To examine whether these identified active compounds promote neuronal survival, hippocampal neurons are prepared and the cultures are pretreated with the identified active compounds for 30 minutes, followed by treatment with 50 μM glutamate for 16 hours.
Using a cell-based screen as described above in Example 1 (based on the anti-apoptotic action of TrkB signaling) and the chemical library from the Spectrum Collection (described above), 66 positive hits were generated, four of which were gedunin derivatives. […] In this assay, neurons with both cleaved caspase (MR (DEVD)2 red cells) and condensed nuclei (DAPI staining) were counted as apoptotic cells. […]

In experiment [5] the test system is hippocampal neurons. Description: Oxygen-glucose deprivation (OGD) apoptosis in hippocampal neurons. Format: cell-based. Conditions: apoptotic ratio compared to BDNF and DMSO.
Experiment [6] addresses T1, TrkB (Homo sapiens, UniProt Q16620).
T1 construct: expressed in transfected cells; host or cells: HEK293
In words: TrkB dimerization assay (GST pull-down, transfected HEK293 cells). Format: cell-based. As to the method:
HEK293 cells transfected with GST-TrkB and HA-TrkA or TrkB were washed once in PBS, and lysed in 1 ml lysis buffer (50 mM Tris, pH 7.4, 150 mM NaCl, 1 mM EDTA, 0.5% Triton X-100, 1.5 mM Na3VO4, 50 mM NaF, 10 mM sodium pyrophosphate, 10 mM sodium β-glycerophosphate, 1 mM phenylmethylsulfonyl fluoride (PMSF), […], […] leupeptin, […] pepstatin A), and centrifuged for 10 minutes at 14,000×g at 4° C. The supernatant was then transferred to a fresh tube and transfected TrkB receptor was pulled down with glutathione beads. The coprecipitated proteins were resolved on SDS-PAGE. The samples were transferred to a nitrocellular membrane, and immunoblotting analysis was performed with a variety of antibodies.
BDNF is known to bind the TrkB receptor and provoke its dimerization (Barbacid, J. Neurobiol., 25:1386-1403, 1994; Klein et al, Cell, 66:395-403, 1991). To explore whether an identified active compound triggers TrkB receptor dimerization, HEK293 cells are cotransfected with GST-TrkB and HA-TrkB or HA-TrkA. The cells then are treated with BDNF or an identified active compound (0.5 μM) for 30 minutes. […]

Chain of TrkB extra-cellular domain (ECD) (Q16620 32-430 limits assumed): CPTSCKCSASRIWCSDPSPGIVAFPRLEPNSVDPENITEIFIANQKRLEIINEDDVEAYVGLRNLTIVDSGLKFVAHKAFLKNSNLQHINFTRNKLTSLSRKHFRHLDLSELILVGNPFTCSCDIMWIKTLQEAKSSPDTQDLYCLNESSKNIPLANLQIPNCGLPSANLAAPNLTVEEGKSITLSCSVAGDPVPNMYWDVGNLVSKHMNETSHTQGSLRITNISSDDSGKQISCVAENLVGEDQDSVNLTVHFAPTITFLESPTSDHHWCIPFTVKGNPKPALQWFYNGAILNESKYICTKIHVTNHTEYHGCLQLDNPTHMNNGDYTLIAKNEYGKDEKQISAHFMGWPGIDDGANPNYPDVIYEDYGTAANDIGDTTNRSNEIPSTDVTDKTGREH
Chain of TrkA (P04629 33-796, species assumed): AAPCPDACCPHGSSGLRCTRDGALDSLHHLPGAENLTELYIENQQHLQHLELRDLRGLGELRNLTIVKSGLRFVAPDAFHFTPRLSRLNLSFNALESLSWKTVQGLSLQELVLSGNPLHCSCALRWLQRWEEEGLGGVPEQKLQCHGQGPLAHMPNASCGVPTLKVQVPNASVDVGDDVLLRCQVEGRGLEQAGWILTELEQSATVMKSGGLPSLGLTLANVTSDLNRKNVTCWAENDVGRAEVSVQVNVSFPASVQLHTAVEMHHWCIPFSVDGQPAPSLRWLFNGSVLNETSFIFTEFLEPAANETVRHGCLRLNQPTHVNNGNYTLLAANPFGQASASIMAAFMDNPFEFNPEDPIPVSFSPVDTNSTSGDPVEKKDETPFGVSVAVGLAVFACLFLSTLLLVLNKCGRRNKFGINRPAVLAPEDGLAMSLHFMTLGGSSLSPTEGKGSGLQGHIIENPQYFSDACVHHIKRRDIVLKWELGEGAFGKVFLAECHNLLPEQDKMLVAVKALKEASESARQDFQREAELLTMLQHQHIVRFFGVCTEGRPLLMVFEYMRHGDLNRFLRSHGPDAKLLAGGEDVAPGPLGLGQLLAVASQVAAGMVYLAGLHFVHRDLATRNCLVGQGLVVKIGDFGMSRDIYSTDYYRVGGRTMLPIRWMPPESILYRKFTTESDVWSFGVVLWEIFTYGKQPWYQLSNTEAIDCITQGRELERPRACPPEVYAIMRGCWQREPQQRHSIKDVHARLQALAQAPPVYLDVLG
Chain of TrkB intra-cellular domain (ICD) (Q16620 455-822 limits assumed): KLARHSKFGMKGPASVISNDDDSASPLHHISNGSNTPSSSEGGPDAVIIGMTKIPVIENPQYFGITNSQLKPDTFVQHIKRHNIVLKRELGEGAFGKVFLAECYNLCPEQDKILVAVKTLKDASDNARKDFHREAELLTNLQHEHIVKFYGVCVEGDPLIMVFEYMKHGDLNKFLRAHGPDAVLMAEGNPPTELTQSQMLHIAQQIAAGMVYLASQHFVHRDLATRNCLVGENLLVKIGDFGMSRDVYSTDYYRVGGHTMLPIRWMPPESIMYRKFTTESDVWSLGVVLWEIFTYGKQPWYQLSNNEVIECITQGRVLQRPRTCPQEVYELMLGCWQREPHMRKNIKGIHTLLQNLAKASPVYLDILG
T1 sequence (Q16620 32-822, species assumed): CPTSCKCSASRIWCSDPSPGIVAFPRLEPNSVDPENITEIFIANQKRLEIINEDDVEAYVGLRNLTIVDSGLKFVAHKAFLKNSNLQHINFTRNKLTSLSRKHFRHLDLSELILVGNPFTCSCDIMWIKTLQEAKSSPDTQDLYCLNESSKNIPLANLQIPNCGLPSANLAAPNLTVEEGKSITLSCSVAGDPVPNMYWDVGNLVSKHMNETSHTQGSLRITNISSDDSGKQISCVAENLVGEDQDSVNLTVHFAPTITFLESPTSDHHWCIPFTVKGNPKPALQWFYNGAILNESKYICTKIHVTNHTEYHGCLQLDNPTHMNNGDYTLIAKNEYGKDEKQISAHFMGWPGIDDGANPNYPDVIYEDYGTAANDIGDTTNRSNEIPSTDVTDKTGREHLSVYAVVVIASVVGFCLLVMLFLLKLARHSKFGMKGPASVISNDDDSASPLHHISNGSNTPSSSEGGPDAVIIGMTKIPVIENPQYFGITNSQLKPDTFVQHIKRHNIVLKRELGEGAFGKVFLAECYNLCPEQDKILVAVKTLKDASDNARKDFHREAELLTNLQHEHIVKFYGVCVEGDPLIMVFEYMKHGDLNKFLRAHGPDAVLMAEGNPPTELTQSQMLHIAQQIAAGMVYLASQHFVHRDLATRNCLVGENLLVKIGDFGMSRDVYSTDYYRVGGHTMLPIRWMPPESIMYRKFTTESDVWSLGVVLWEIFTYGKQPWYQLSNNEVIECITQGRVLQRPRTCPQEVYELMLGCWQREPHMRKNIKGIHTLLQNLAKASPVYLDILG
T1 sequence (Q16620 32-822, species assumed): as above

In the case of “32-[^3H]3-deoxygedunin [[^3H]-deoxygedunin]”, in experiment [1], the “binding to TrkB ECD” value is “progressively bound”. Further, the “binding to TrkB ICD” value in experiment [2] is reported as “not the intra-cellular domain (ICD)”. The “binding to TrkA” value in experiment [3] is recorded as “did not bind to TrkA”.

Turning to `CC(=O)O[C@@H]1CC2C(C)(C)[C@H](O)CC[C@]2(C)C2CC[C@@]3(C)[C@H](c4ccoc4)OC(=O)C4OC43[C@@]21C` (stereo partly drawn) [alpha-dihydrogedunol (epoxy ring down), alphadihydrogedunol (epoxy ring down)], the “protective effect (apoptosis inhibitory activity)” value in experiment [4] is listed as “protective effect”. Besides, the “protective effects on hippocampal neurons under OGD” value in experiment [5] was “potent protective effects”. In addition, in experiment [6], the TrkB dimerization result is recorded as “notably promoted TrkB dimerization”.
